Measured values reported in US9827222B2, “Treating or preventing nephrogenic diabetes insipidus” (Emory University, priority 2013, dated 2017).

Legend:
AQP2 [1] = test: AQP2 phosphorylation in rat inner medulla
Source text: Left: immune-precipitated 32P-AQP2; Right: phospho S256-AQP2.

[2] = Urine osmolality in rats after IP metformin; type: in vivo, rat; conditions: rats with normal water or water loaded for 1 week; 4 h after IP injection of metformin
Source text: (§1) Rats with normal water (blue); water loaded for 1 week (red). Mice fed lithium for 14 days (green); V2R−/− mice (brown).

[3] = Urine osmolality in lithium-treated mice; type: in vivo; conditions: mice fed lithium for 14 days; 4 h after IP injection of metformin
Source text: as §1

[4] = Urine osmolality in V2R knock-out mice (model of congenital NDI); type: in vivo; conditions: 4 h after IP injection of metformin
Source text: as §1
(§2) Preliminary data indicates AMPK phosphorylates both the UT-A1 and AQP2 proteins, both in vitro (FIG. 3) and in native rat IMCD suspensions (FIG. 4). […]. Thus, AMPK may mimic by which vasopressin increases urine concentrating ability.

UT-A1 = UT-A1 phosphorylation in rat inner medullary tissue; conditions: AMPK stimulation with metformin, p<0.05
Source text: as §2

AQP2 [5] = test: Apical plasma membrane AQP2 in IMCDs of treated rats; type: in vivo, rat; conditions: 4 h, 100 mg/kg IP
Source text: 400×, HRP/Dab with hematoxylin stained nuclei.

UT-A1-mIMCD3 cells = test: cAMP in UT-A1-mIMCD3 cells; type: cell-based; conditions: 1 μM vasopressin (AVP) for 10 min; p<0.05
Protocol: FIG. 5 illustrates cAMP in UT-A1-mIMCD3 cells after treatment with 1 μM vasopressin (AVP) for 10 min, *=p<0.05.

**Q.** With `Cc1ccccc1C(=O)Nc1ccc(C(=O)N2CCCC(O)c3cc(Cl)ccc32)c(C)c1` (stereo not drawn) [tolvaptan] as the molecule, how does the “AQP2 phosphorylation (immune-precipitated 32P-AQP2)” value (AQP2 [1]; native rat IMCDs, 10^-7 M tolvaptan & 10^-4 M metformin, compared to metformin alone) read?
**A.** Its value is “increased”.

**Q.** With `CN(C)C(=N)N=C(N)N` [metformin] as the molecule, how does the urine osmolality [2] read?
**A.** The urine osmolality was “increases”.

**Q.** And the urine osmolality [3]?
**A.** The urine osmolality was “increases”.

**Q.** What about the urine osmolality [4] of the same molecule?
**A.** The urine osmolality was “increases”.

**Q.** And the UT-A1 phosphorylation (UT-A1)?
**A.** The UT-A1 phosphorylation was “undergo phosphorylation”.

**Q.** What about the pS256-AQP2 (AQP2 [1]; rat inner medulla, 10^-4 M metformin with V2R inhibited using 10^-7 M tolvaptan) of the same molecule?
**A.** Its pS256-AQP2 is “increases”.

**Q.** And the AQP2 phosphorylation (AQP2 [1]; rat inner medullary tissue, AMPK stimulation with metformin, p<0.05)?
**A.** Its AQP2 phosphorylation is “undergo phosphorylation”.

**Q.** What about the “apical plasma membrane AQP2” value (AQP2 [5]) of the same molecule?
**A.** Its value is “increases”.

**Q.** For `NC(=O)CC[C@@H]1NC(=O)[C@H](Cc2ccccc2)NC(=O)[C@H](Cc2ccc(O)cc2)NC(=O)[C@@H](N)CSSC[C@@H](C(=O)N2CCC[C@H]2C(=O)N[C@@H](CCCN=C(N)N)C(=O)NCC(N)=O)NC(=O)[C@H](CC(N)=O)NC1=O` [Vasopressin, vasopressin], which cAMP (UT-A1-mIMCD3 cells) is on record?
**A.** Its cAMP is “increases”.
